Laboratory results as given in PubChem BioAssay (NCI).
Where “and” joins values, the source holds several entries; their conditions need not be identical. Equal values may be shown once.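 Exposure lasted 48 hours, with cells grown in 96-well plates and compounds tested at five concentrations. The concentration for 50% growth inhibition is given as GI50. TGI denotes the concentration required for complete inhibition of growth.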

Key:
Assay in all cases: growth of human tumour cells (NCI), 48 h
A549 NSCLC = tested on: A549 NSCLC
HCC-2998 colon = tested on: HCC-2998 colon
HCT-15 colon = tested on: HCT-15 colon
HOP-62 NSCLC = tested on: HOP-62 NSCLC
HT29 colon = tested on: HT29 colon
LOX IMVI melanoma = tested on: LOX IMVI melanoma
MALME-3M melanoma = tested on: MALME-3M melanoma
OVCAR-4 ovarian = tested on: OVCAR-4 ovarian
OVCAR-5 ovarian = tested on: OVCAR-5 ovarian
SR leukemia = tested on: SR leukemia

Compound | GI50 (A549 NSCLC) | TGI (A549 NSCLC) | GI50 (HCC-2998 colon) | TGI (HCC-2998 colon) | GI50 (HCT-15 colon) | TGI (HCT-15 colon) | GI50 (HOP-62 NSCLC) | TGI (HOP-62 NSCLC) | GI50 (HT29 colon) | TGI (HT29 colon) | GI50 (LOX IMVI melanoma) | TGI (LOX IMVI melanoma) | GI50 (MALME-3M melanoma) | TGI (MALME-3M melanoma) | GI50 (OVCAR-4 ovarian) | TGI (OVCAR-4 ovarian) | GI50 (OVCAR-5 ovarian) | TGI (OVCAR-5 ovarian) | GI50 (SR leukemia) | TGI (SR leukemia)
COC(=O)c1ccc(NC(N)=NCCC(C)(C)c2ccc(C(F)(F)F)cc2)nc1 | 4.83 µM | 17.2 µM | 1.79 µM | 3.64 µM | 1.99 µM | 5.12 µM | 6.16 µM | 22 µM | 2.55 µM | 6.83 µM | 1.57 µM | 2.98 µM | 1.7 µM | 3.37 µM | 1.71 µM | 9.18 µM | 2.98 µM | 13.5 µM | 0.892 µM | 2.91 µM
CNC(=O)OCc1nc(SSc2nc(COC(=O)NC)c(COC(=O)NC)n2C)n(C)c1COC(=O)NC | – | > 100 µM | – | > 100 µM | – | > 100 µM | – | > 100 µM | – | > 100 µM | – | > 100 µM | – | > 100 µM | – | > 100 µM | – | > 100 µM | – | > 100 µM
CCN(CC)CCNc1n[n+]([O-])c2cc([N+](=O)[O-])ccc2[n+]1[O-] | – | 3.11 µM and 3.08 µM and 2.48 µM | 0.206 µM and 0.287 µM and 0.12 µM | 1.53 µM and 2.01 µM and 0.57 µM | 0.87 µM and 0.287 µM and 0.273 µM | 5.12 µM and 3.16 µM and 2.74 µM | – | 2.2 µM and 1.2 µM and 1.54 µM | – | 2.41 µM and 2.22 µM and 1.71 µM | – | 2.06 µM and 1.96 µM and 1.83 µM | 0.571 µM and 0.306 µM and 0.144 µM | 1.85 µM and 1.38 µM and 1.15 µM | – | 3.78 µM and 5.62 µM and 6.49 µM | – | 4.45 µM and 3.44 µM and 4.33 µM | 0.398 µM and 0.188 µM and 0.123 µM | 1.75 µM and 0.958 µM and 0.754 µM
CCOC(=O)C[C@@]12CCCN[C@]1(C)CCc1ccccc12 | – | > 100 µM | – | > 100 µM | – | > 100 µM | – | > 100 µM | – | > 100 µM | – | > 100 µM | – | > 100 µM | – | > 100 µM | – | > 100 µM | – | > 100 µM
CC(C)(C)C1=NO[C@H]2[C@@H](NC(=O)c3ccccc3)CC[C@@H]12 | – | > 100 µM | – | > 100 µM | – | > 100 µM | – | > 100 µM | – | > 100 µM | – | > 100 µM | – | > 100 µM | – | > 100 µM | – | > 100 µM | – | > 100 µM
Cc1ccc(C(=O)Nc2ccc(Oc3cc4cnn(C)c4cc3-c3cn[nH]c3)c(F)c2)c(=O)n1-c1ccc(F)cc1 | 7.6 µM | > 100 µM | > 100 µM | > 100 µM | 6.1 µM | > 100 µM | > 37.9 µM | > 100 µM | 3.54 µM | > 100 µM | 2.46 µM | > 100 µM | 3.35 µM | > 100 µM | > 100 µM | > 100 µM | 10.9 µM | > 100 µM | > 38.8 µM | > 100 µM
O=C(CI)NC(=O)NC(=O)NCc1ccccc1 | 18.7 µM | 42.8 µM | 10.4 µM | 22.9 µM | 2.03 µM | 4.94 µM | 18.5 µM | 42 µM | 2.66 µM | 6.72 µM | 1.44 µM | 3 µM | 1.57 µM | 3.52 µM | 4.42 µM | 31 µM | 2.98 µM | 10.8 µM | 0.804 µM | 3.1 µM
Nc1c(C(=O)Nc2ccccc2)sc2nc3c(cc12)C(=O)CCC3 | 0.436 µM | > 100 µM | 1.2 µM | > 100 µM | 0.407 µM | > 100 µM | 0.745 µM | > 100 µM | 0.354 µM | – | – | > 100 µM | 4.66 µM | > 100 µM | 0.81 µM | > 100 µM | 1.28 µM | > 100 µM | 0.533 µM | > 100 µM
